Measured values as given in US8758775B2 (priority 2005, dated 2014).

Tests used:
[1] = tested on: E. coli-sta enterotoxin induced diarrhoea; design: species or system NMRI mice; settings: mouse, in vivo
[2] = tested on: E. coli-sta enterotoxin induced diarrhoea; design: species or system NMRI mice; settings: mouse, in vivo; remark: listed apart in the source
[3] = tested on: heartburn in patients suffering from endoscopic negative GORD; settings: in vivo
[4] = tested on: intestinal system's proteolytic capacity and disacaridase potential; settings: cited from earlier work

| Molecule | mean number of stools passed [1] | net stool weight [1] | frequency of defecation [2] | reduction in stool weight [2] | Reported side-effects: Bloatedness [3] | Reported side-effects: Constipation [3] | Reported side-effects: Nausea [3] | Reported side-effects: No side-effects [3] | Reported side-effects: Sleeplessness [3] | intestinal system's proteolytic capacity and disacaridase potential [4] |
| --- | --- | --- | --- | --- | --- | --- | --- | --- | --- | --- |
| CN(C)C(=O)C(CCN1CCC(O)(c2ccc(Cl)cc2)CC1)(c1ccccc1)c1ccccc1 [loperamide] | reduction | reduction | significantly reduced (P<0.05) | significant (P<0.05) |  |  |  |  |  |  |
| clinoptilolite |  |  |  |  | 3/10 | 2/10 | 1/10 | 4/10 | 1/10 | not modified |
